According to patent publication US20100121049A1, “INDENOISOQUINOLINONE ANALOGS AND METHODS OF USE THEREOF” (INOTEK PHARMACEUTICALS CORPORATION, priority 2007, published 2010):

The compounds below were run against T1, PARP (Mus musculus, UniProt P11103) (assay: PARP activity in cultured macrophages, whole-cell based assay (3H-NAD+ incorporation after hydrogen peroxide)). Details: murine RAW macrophages; compound 1 hour prior to hydrogen peroxide (0.5 mM) for 25 minutes; PARP activity by 3H-NAD+.
T1 construct: PARP Activity in Cultured Macrophages, Using a Whole-Cell Based Assay; host or cells: murine RAW macrophages
Method: Effect of Indenoisoquinolinone Analogs on PARP Activity in Cultured Macrophages, Using a Whole-Cell Based Assay
The murine RAW macrophages (ATCC, American Type Culture Collection, Manassas, Va.) were grown in RPMI […] (Invitrogen Life Technologies; Carlsbad, Calif.) medium supplemented with 10% heat-inactivated FBS, 2 mM L-glutamine, and 100 U/ml of penicillin and streptomycin. Cells, between passages 5 and 15, were seeded at a density of 250,000 cells/well in 12 well plates and allowed to grow 48 hours before use. Growth medium was changed on the day of use. Cells were treated with an Indenoisoquinolinone Analog diluted in a growth medium supplemented with 10% fetal bovine serum (FBS) for 1 hour prior to the addition of hydrogen peroxide (0.5 mM) for a further 25 minutes. For the measurement of PARP activity, media was removed and replaced with 0.5 ml of the assay buffer (56 mM HEPES-pH 7.5, 28 mM KCl, 28 mM NaCl, 2 mM MgCl2, 0.01% digitonin, and 0.5 μCi/m1 of ^3H-NAD^+) for 20 minutes. After aspirating the assay buffer, cells were lysed and transferred to eppendorf tubes containing 250 μl of 50% ice-cold trichloroacetic acid (TCA), which were then placed at 4° C. for 4 hours. Samples were centrifuged at 10,000 g for 10 minutes and supernatant removed. The pellets were washed twice with 500 μl of ice-cold 5% w/v TCA. The pellets were then solubilized in 250 μl of NaOH (0.1 M) containing 2% SDS overnight at 37° C. and the PARP activity was then determined by measuring the radioactivity incorporated using a Wallac scintillation counter. The solubilized protein (250 μl) was mixed with 5 ml of scintillation fluid (ScintiSafe Plus, Fisher Scientific) before being counted for 3 minutes. EC50 values were determined from a dose-response curve.

T1 sequence (P11103 whole entry): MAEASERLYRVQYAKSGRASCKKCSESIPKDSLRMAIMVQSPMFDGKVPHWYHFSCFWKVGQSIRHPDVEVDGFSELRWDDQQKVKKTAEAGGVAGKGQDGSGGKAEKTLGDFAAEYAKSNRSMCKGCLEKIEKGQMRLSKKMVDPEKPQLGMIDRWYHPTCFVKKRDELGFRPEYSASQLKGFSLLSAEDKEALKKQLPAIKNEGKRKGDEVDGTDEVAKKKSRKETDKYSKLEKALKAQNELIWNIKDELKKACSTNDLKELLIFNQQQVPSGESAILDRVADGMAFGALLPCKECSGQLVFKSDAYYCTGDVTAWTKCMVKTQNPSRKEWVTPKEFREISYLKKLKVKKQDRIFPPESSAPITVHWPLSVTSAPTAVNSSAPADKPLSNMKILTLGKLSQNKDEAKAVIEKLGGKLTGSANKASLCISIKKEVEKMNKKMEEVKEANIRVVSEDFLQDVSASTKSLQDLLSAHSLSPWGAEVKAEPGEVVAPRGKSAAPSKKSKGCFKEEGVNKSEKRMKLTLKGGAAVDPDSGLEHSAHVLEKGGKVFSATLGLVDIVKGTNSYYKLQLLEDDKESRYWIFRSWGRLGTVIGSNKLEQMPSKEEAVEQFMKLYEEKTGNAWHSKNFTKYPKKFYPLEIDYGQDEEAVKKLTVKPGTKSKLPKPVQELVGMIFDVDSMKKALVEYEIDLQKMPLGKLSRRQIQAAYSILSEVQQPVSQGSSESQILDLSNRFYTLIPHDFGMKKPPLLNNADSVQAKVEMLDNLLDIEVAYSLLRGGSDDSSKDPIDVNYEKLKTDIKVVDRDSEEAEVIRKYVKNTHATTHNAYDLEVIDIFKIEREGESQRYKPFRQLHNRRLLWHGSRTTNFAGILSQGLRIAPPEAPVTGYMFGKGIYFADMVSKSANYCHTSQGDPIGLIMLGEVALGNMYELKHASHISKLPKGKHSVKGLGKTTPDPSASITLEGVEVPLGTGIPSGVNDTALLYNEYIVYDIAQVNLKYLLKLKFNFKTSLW

Row | EC50 [nM] | Compound
1 | 9 | O=c1[nH]c2c(c3ccc(F)cc13)Cc1c(CNC3CCCC3)cccc1-2 [Va-3, 10-((cyclopentylamino)methyl)-3-fluoro-6,11-dihydro-5H-indeno[1,2-c]isoquinolin-5-one]
2 | 4 | O=c1[nH]c2c(c3cccc(F)c13)Cc1c(CNC3CCCC3)cccc1-2 [Va-4, 10-((cyclopentylamino)methyl)-4-fluoro-6,11-dihydro-5H-indeno[1,2-c]isoquinolin-5-one]
3 | 5 | O=c1[nH]c2c(c3ccc(F)cc13)Cc1c(CNC3CCOCC3)cccc1-2 [Va-5, 3-fluoro-10-((tetrahydro-2H-pyran-4-ylamino)methyl)-6,11-dihydro-5H-indeno[1,2-c]isoquinolin-5-one]
4 | 5 | O=c1[nH]c2c(c3c(F)cccc13)Cc1c(CNC3CCCC3)cccc1-2 [Va-7, 10-((cyclopentylamino)methyl)-1-fluoro-6,11-dihydro-5H-indeno[1,2-c]isoquinolin-5-one]
5 | 3 | O=c1[nH]c2c(c3ccccc13)Cc1c(CNC3(CO)CCCC3)cc(F)cc1-2 [Va-9, 8-fluoro-10-((1-(hydroxymethyl)cyclopentylamino)methyl)-6,11-dihydro-5H-indeno[1,2-c]isoquinolin-5-one]
6 | 3 | O=c1[nH]c2c(c3ccc(F)cc13)Cc1c(CNC3(CO)CCCC3)cc(F)cc1-2 [Va-10, 3,8-difluoro-10-((1-(hydroxymethyl)cyclopentylamino)methyl)-6,11-dihydro-5H-indeno[1,2-c]isoquinolin-5-one]
